Assay results reported in ChEMBL document CHEMBL4665887, “Identification, Structure-Activity Relationships of Marine-Derived Indolocarbazoles, and a Dual PKCθ/δ Inhibitor with Potent Antipancreatic Cancer Efficacy” (J Med Chem, 2020).
The source made the active and inactive calls. The calls are words filed in the database; no cut-off is given here.

Tests used:
BXPC-3 [1] = test: Induction of apoptosis in human BXPC-3 cells assessed as increase in cleaved caspase-7 level at 0.25 uM incubated for 30 mins by Western blot analysis; format: functional, cell-based
BXPC-3 [2] = test: Induction of apoptosis in human BXPC-3 cells assessed as increase in cleaved PARP level at 0.25 uM incubated for 30 mins by Western blot analysis; format: functional, cell-based
[3] = target: Transcription factor p65 (Homo sapiens) (UniProt Q04206); test: Inhibition of p65 phosphorylation in human BXPC-3 cells at 0.5 uM measured within 1 hr by Western blot analysis; format: cell-based; details: time hrs <=1
BXPC-3 [4] = test: Induction of apoptosis in human BXPC-3 cells incubated for 24 hrs by PI and annexin V-FITC staining based flow cytometry; format: functional, cell-based
BXPC-3 [5] = test: Antitumor activity against patient-derived pancreatic cancer cells xenografted in BALB/c mouse model of patient-derived xenograft assessed as increase in cleaved caspase- levels at 6 mg/kg, iv dosed once every 2 days for 18 days by Western blot analysis; format: functional, organism-based; details: Homo sapiens, time 18.0 day
BXPC-3 [6] = test: Reduction in Mcl1 protein expression in human BXPC-3 cells incubated for 24 hrs by Western blot analysis; format: functional, cell-based
BXPC-3 [7] = test: Induction of apoptosis in human BXPC-3 cells assessed as increase in cleaved caspase-3 level at 0.25 uM incubated for 30 mins by Western blot analysis; format: functional, cell-based
BXPC-3 [8] = test: Antitumor activity against patient-derived pancreatic cancer cells xenografted in BALB/c mouse model of patient-derived xenograft assessed as reduction in p-PKCdelta protein levels at 6 mg/kg, iv dosed once every 2 days for 18 days by Western blot analysis; format: functional, organism-based; details: Homo sapiens, time 18.0 day
[9] = target: NF-kappa-B inhibitor alpha (Homo sapiens) (UniProt P25963); test: Inhibition of IkappaB-alpha phosphorylation in human BXPC-3 cells at 0.5 uM measured within 1 hr by Western blot analysis; format: cell-based; details: time hrs <=1
BXPC-3 [10] = test: Antitumor activity against patient-derived pancreatic cancer cells xenografted in BALB/c mouse model of patient-derived xenograft assessed as increased numbers of necrotic cells at 6 mg/kg, iv dosed once every 2 days for 18 days by H and E staining based analysis relative to control; format: functional, organism-based; details: Homo sapiens, time 18.0 day
[11] = target: Protein kinase C zeta type (Homo sapiens) (UniProt Q05513); test: Inhibition of PKCzeta phosphorylation in human BXPC-3 cells at 1 uM incubated for 4 hrs by Western blot analysis; format: cell-based
[12] = target: Inhibitor of nuclear factor kappa-B kinase subunit beta (Homo sapiens) (UniProt O14920); test: Inhibition of IKKbeta phosphorylation in human BXPC-3 cells at 0.5 uM measured within 1 hr by Western blot analysis; format: cell-based; details: time hrs <=1
[13] = target: Protein kinase C beta type (Homo sapiens) (UniProt P05771); test: Inhibition of PKC(pan)/beta II phosphorylation at S660 residue in human BXPC-3 cells at 1 uM incubated for 4 hrs by Western blot analysis; format: cell-based
[14] = target: Protein kinase C theta type (Homo sapiens, UniProt Q04759); test: Inhibition of PKCtheta phosphorylation at T538 residue in human BXPC-3 cells at 0.25 uM incubated for 4 hrs by Western blot analysis; format: cell-based
[15] = target: Inhibitor of nuclear factor kappa-B kinase subunit alpha (Homo sapiens) (UniProt O15111); test: Inhibition of IKKalpha phosphorylation in human BXPC-3 cells at 0.5 uM measured within 1 hr by Western blot analysis; format: cell-based; details: time hrs <=1
BXPC-3 [16] = test: Reduction in Bcl-XL protein expression in human BXPC-3 cells incubated for 24 hrs by Western blot analysis; format: functional, cell-based
BXPC-3 [17] = test: Reduction in XIAP protein expression in human BXPC-3 cells incubated for 24 hrs by Western blot analysis; format: functional, cell-based
BXPC-3 [18] = test: Induction of apoptosis in human BXPC-3 cells assessed as increase in cleaved caspase-9 level at 0.25 uM incubated for 30 mins by Western blot analysis; format: functional, cell-based
BXPC-3 [19] = test: Antitumor activity against patient-derived pancreatic cancer cells xenografted in BALB/c mouse model of patient-derived xenograft assessed as increase in cleaved caspase-3 levels at 6 mg/kg, iv dosed once every 2 days for 18 days by Western blot analysis; format: functional, organism-based; details: Homo sapiens, time 18.0 day
[20] = target: Protein kinase C beta type (Homo sapiens) (UniProt P05771); test: Inhibition of PKCbeta phosphorylation at S660 residue in human BXPC-3 cells at 1 uM incubated for 4 hrs by Western blot analysis; format: cell-based
[21] = target: Protein kinase C alpha type (Homo sapiens) (UniProt P17252); test: Inhibition of PKCalpha phosphorylation in human BXPC-3 cells at 1 uM incubated for 4 hrs by Western blot analysis; format: cell-based
[22] = target: Protein kinase C delta type (Homo sapiens, UniProt Q05655); test: Inhibition of PKCdelta phosphorylation at T505 residue in human BXPC-3 cells at 1 uM incubated for 4 hrs by Western blot analysis; format: cell-based
[23] = target: PKC alpha and beta-2 (Homo sapiens) (UniProt P17252+P05771); test: Inhibition of PKCalpha/beta II phosphorylation at T638/T641 residue in human BXPC-3 cells at 1 uM incubated for 4 hrs by Western blot analysis; format: cell-based
BXPC-3 [24] = test: Reduction in Bcl-2 protein expression in human BXPC-3 cells incubated for 24 hrs by Western blot analysis; format: functional, cell-based
[25] = target: Protein kinase C iota type/zeta type (Homo sapiens) (UniProt P41743+Q05513); test: Inhibition of PKCzeta/lambda phosphorylation at T410/T403 residue in human BXPC-3 cells at 1 uM incubated for 4 hrs by Western blot analysis; format: cell-based
[26] = target: Protein kinase C iota type (Homo sapiens) (UniProt P41743); test: Inhibition of PKClambda phosphorylation in human BXPC-3 cells at 1 uM incubated for 4 hrs by Western blot analysis; format: cell-based
[27] = Toxicity in BALB/c mouse model of patient-derived xenograft implanted with patient-derived pancreatic cancer cells assessed as effect on body weight at 30 mg/kg, ip QD for 18 days relative to control; format: organism-based; details: in vivo, 432 h, time 18 day
[28] = Toxicity in BALB/c mouse model of patient-derived xenograft implanted with patient-derived pancreatic cancer cells assessed as effect on normal anatomical structures of heart at 30 mg/kg, ip QD for 18 days relative to control; format: organism-based; details: in vivo, 432 h, time 18 day
[29] = Toxicity in BALB/c mouse model of patient-derived xenograft implanted with patient-derived pancreatic cancer cells assessed as effect on normal anatomical structures of spleen at 30 mg/kg, ip QD for 18 days relative to control; format: organism-based; details: in vivo, 432 h, time 18 day
[30] = Toxicity in BALB/c mouse model of patient-derived xenograft implanted with patient-derived pancreatic cancer cells assessed as effect on normal anatomical structures of kidney at 30 mg/kg, ip QD for 18 days relative to control; format: organism-based; details: in vivo, 432 h, time 18 day
[31] = Toxicity in nude BALB/c mouse xenografted with human BXPC-3 cells assessed as effect on body weight level at 30 mg/kg, ip QD for 18 days relative to control; format: organism-based; details: in vivo, 432 h, time 18 day
[32] = Antitumor activity against patient-derived pancreatic cancer cells xenografted in BALB/c mouse model of patient-derived xenograft assessed as inhibition of tumor growth at 30 mg/kg, ip QD for 18 days relative to control; format: functional; details: Homo sapiens, Pancreatic cancer cell, 432 h, time 18 day, read-out: TGI
BXPC-3 [33] = test: Antitumor activity against human BXPC-3 cells xenografted in nude BALB/c mouse assessed as inhibition of tumor growth at 30 mg/kg, ip QD for 18 days relative to control; format: functional; details: BXPC-3, ip, 432 h, time 18 day, read-out: TGI
[34] = Toxicity in BALB/c mouse model of patient-derived xenograft implanted with patient-derived pancreatic cancer cells assessed as effect on normal anatomical structures of liver at 30 mg/kg, ip QD for 18 days relative to control; format: organism-based; details: in vivo, 432 h, time 18 day
[35] = Toxicity in BALB/c mouse model of patient-derived xenograft implanted with patient-derived pancreatic cancer cells assessed as effect on normal anatomical structures of lung at 30 mg/kg, ip QD for 18 days relative to control; format: organism-based; details: in vivo, 432 h, time 18 day

Chain of Protein kinase C beta type (Homo sapiens) (P05771 2-671 limits assumed): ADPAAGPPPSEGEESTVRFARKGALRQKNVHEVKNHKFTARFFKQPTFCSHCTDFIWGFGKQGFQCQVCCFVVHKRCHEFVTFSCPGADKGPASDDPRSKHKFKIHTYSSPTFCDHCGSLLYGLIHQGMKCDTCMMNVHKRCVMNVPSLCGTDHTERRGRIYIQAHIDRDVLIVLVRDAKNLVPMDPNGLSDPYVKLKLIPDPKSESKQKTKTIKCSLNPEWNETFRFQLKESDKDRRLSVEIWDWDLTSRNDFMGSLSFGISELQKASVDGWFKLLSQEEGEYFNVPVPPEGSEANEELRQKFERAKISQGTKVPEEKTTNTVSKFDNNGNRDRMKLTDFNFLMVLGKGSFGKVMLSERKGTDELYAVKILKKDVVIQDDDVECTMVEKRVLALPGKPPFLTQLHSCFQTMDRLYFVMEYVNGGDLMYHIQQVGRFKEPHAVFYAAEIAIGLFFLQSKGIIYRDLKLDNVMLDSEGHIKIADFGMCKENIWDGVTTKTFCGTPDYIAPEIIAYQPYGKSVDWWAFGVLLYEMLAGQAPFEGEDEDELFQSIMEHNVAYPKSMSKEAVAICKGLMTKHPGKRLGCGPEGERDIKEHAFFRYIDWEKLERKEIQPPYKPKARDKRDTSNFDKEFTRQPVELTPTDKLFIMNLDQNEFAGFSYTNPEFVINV
Chain of PKC alpha and beta-2 (Homo sapiens) (P05771 whole entry, looked up): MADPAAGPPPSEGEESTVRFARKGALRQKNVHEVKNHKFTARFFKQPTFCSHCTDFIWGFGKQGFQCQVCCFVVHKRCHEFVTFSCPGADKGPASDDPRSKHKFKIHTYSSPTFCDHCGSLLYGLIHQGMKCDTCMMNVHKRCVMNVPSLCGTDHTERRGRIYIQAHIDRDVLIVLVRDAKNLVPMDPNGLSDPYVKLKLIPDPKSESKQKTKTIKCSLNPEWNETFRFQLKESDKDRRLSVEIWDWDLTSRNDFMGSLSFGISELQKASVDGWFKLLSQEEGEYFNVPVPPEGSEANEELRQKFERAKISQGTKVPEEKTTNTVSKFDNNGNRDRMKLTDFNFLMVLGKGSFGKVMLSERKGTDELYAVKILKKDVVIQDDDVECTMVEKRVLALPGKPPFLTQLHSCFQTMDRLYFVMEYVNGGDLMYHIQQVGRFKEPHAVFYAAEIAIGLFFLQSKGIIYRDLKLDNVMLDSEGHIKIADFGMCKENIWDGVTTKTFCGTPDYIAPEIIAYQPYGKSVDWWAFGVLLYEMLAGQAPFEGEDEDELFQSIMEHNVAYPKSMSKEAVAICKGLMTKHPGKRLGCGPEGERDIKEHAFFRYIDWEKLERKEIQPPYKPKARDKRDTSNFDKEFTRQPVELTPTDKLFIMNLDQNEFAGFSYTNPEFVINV
Chain of Inhibitor of nuclear factor kappa-B kinase subunit alpha (Homo sapiens) (O15111 whole entry): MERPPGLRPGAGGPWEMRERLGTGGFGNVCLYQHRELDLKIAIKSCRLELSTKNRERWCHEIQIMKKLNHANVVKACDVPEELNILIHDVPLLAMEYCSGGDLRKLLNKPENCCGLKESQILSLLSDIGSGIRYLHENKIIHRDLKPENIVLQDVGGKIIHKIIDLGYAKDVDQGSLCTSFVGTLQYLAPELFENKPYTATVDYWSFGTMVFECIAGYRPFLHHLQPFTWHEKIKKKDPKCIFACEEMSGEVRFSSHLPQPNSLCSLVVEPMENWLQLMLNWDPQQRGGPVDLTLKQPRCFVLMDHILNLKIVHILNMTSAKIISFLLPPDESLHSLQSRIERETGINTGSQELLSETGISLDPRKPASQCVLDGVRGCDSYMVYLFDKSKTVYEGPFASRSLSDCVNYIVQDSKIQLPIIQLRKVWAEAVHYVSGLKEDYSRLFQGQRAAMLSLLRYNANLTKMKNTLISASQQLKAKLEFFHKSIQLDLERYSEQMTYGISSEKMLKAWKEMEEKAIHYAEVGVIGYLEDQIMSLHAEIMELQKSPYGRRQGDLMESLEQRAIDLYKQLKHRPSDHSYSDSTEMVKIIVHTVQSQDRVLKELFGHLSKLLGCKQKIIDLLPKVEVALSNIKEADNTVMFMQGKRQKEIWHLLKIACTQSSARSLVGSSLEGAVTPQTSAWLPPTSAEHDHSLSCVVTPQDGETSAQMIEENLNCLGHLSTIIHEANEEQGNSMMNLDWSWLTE
Chain of Inhibitor of nuclear factor kappa-B kinase subunit beta (Homo sapiens) (O14920 whole entry): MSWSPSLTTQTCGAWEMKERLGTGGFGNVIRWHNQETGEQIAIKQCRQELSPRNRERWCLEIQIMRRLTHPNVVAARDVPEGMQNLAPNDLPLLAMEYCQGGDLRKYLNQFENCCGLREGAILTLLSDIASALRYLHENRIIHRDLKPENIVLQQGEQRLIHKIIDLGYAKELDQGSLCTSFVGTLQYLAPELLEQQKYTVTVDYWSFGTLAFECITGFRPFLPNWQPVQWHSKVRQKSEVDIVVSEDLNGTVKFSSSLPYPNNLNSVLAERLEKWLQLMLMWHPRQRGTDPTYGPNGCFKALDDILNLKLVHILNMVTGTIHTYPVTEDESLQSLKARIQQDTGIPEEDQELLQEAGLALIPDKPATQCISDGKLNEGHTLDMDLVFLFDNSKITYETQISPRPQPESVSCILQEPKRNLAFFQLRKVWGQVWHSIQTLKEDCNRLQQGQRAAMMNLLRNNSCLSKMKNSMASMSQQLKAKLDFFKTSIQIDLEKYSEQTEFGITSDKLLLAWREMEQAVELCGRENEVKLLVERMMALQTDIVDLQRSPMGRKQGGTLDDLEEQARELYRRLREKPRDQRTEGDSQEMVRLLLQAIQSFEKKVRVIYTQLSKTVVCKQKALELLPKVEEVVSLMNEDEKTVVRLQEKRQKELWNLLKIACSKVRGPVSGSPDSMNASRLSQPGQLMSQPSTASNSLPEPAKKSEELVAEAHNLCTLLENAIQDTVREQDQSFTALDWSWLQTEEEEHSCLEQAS
Chain of NF-kappa-B inhibitor alpha (Homo sapiens) (P25963 whole entry): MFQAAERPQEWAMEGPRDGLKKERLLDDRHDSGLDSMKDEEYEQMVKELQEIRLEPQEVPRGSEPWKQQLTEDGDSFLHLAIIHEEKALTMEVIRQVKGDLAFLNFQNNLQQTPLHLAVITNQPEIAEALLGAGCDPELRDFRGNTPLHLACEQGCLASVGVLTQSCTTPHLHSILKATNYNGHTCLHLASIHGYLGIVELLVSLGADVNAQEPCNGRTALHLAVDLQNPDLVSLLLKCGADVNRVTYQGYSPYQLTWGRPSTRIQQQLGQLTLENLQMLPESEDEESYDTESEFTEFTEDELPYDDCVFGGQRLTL
Chain of Protein kinase C zeta type (Homo sapiens) (Q05513 whole entry): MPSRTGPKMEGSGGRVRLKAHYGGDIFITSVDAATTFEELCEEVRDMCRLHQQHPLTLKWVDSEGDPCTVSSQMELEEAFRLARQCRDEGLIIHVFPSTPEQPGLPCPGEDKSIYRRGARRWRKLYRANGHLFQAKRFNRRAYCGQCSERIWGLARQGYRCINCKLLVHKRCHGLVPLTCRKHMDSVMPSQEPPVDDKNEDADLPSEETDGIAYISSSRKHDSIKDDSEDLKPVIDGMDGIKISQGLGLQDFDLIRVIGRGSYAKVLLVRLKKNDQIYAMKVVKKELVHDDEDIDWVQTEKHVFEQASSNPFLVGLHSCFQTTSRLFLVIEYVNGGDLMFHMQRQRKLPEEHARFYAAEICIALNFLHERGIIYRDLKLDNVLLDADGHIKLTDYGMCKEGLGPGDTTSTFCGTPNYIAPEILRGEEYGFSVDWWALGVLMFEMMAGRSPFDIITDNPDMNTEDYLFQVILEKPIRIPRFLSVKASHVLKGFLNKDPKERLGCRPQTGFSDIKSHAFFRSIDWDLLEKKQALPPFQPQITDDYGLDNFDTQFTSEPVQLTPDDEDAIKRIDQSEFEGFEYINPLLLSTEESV
Chain of Protein kinase C iota type (Homo sapiens) (P41743 whole entry): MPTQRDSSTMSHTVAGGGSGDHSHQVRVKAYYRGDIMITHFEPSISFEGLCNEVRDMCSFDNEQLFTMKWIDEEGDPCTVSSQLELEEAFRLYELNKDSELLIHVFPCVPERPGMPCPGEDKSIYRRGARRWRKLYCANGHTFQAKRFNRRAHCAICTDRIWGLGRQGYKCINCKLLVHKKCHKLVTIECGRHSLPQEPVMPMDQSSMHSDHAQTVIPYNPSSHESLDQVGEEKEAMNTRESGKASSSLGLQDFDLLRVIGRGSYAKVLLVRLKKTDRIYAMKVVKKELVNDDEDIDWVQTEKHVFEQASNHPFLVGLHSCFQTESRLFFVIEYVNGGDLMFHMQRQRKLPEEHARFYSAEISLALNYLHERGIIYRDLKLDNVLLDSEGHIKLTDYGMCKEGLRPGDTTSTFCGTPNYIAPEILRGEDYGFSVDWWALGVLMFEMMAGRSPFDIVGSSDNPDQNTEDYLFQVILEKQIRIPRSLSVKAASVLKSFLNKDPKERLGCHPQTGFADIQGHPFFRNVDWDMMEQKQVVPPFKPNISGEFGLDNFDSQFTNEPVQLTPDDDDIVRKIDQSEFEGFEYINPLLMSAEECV

SMILES: CN[C@@H]1C[C@H]2O[C@@](C)([C@@H]1OC)n1c3ccccc3c3c4c(c5c6ccccc6n2c5c31)C(=O)NC4=O (stereo in doubt; 15)
- Activity (BXPC-3 [1]): Active
- Activity (BXPC-3 [2]): Active
- inhibition [3]: Active
- Activity (BXPC-3 [4]): Dose-dependent effect
- Activity (BXPC-3 [5]): Active
- Activity (BXPC-3 [6]): Dose-dependent effect
- Activity (BXPC-3 [7]): Active
- Activity (BXPC-3 [8]): Active
- inhibition [9]: Active
- Activity (BXPC-3 [10]): Active
- inhibition [11]: inactive
- inhibition [12]: Active
- inhibition [13]: inactive
- inhibition [14]: Active
- inhibition [15]: Active
- Activity (BXPC-3 [16]): Dose-dependent effect
- Activity (BXPC-3 [17]): Dose-dependent effect
- Activity (BXPC-3 [18]): Active
- Activity (BXPC-3 [19]): Active
- inhibition [20]: inactive
- inhibition [21]: inactive
- inhibition [22]: Active
- inhibition [23]: inactive
- Activity (BXPC-3 [24]): Dose-dependent effect
- inhibition [25]: inactive
- inhibition [26]: inactive

SMILES: CC(=O)c1cc2c(o1)C(=O)c1ccccc1C2=O [NAPABUCASIN]
- Activity [27]: Non-Toxic
- Activity [28]: Non-Toxic
- Activity [29]: Non-Toxic
- Activity [30]: Non-Toxic
- Activity [31]: Non-Toxic
- inhibition in vivo at 30 mg/kg [32]: 41.8%
- inhibition in vivo at 30 mg/kg (BXPC-3 [33]): 34.2%
- Activity [34]: Non-Toxic
- Activity [35]: Non-Toxic
